# ChEMBL document CHEMBL1135211, “Non-covalent thrombin inhibitors featuring P3-heterocycles with P1-bicyclic arginine surrogates” (Bioorg Med Chem Lett, 2002)
# Assays:
# [1] = molecular target: Prothrombin (Homo sapiens, UniProt P00734); experiment: In vitro inhibitory activity against human Thrombin (FIIa) cleavage of the chromogenic substrate
# [2] = Cmax in dog plasma after oral dose (1 mg/kg); type: ADME, organism-based, Canis lupus familiaris; set-up: dose 1 mg/kg, route oral
# [3] = in vivo; conditions: dog, po, 1 mg/kg
# [4] = Ionisation constant (pKa); type: physicochemical
# [5] = in vivo; conditions: dog, po, 1 mg/kg; remark: listed apart in the source
Compound,Ki [1] [nM],Cmax [2] [ng/mL],half-life [3] [h],pKa [4],AUC ([5]; plasma) [ng·h/mL],AUC ([5]; in vivo) [ng·h/mL]
Cc1cnc(NCC(F)(F)c2ccccc2)c(=O)n1CC(=O)NCc1ccc2c(N)noc2c1,2.5,1200,3.28,8.6,6030,–
Cc1cnc(NCC2(c3ccccn3)CC2)c(=O)n1CC(=O)NCc1ccc2c(N)noc2c1,25.9,770,1.67,8.6,2230,–
Cc1cnc(NCC(c2ccccc2)c2ccccc2)c(=O)n1CC(=O)NCc1ccc2c(N)noc2c1,31,300,4.17,8.6,2200,–
Cc1nc2cc(CNC(=O)Cn3c(C)cnc(NCCc4ccccc4)c3=O)ccc2[nH]1,> 3970,–,–,6.4,–,–
Cc1cnc(NC[C@@H](C)c2ccccc2)c(=O)n1CC(=O)NCc1ccc2[nH]cnc2c1,9.3,480,1.15,5.8,1010,–
CCc1cnc(NCCc2ccccc2)c(=O)n1CC(=O)NCc1ccc2[nH]ccc2c1,23.7,310,1.4,–,523,–
COc1cccc(S(=O)(=O)Nc2cccn(CC(=O)NCc3ccc4c(N)[nH]nc4c3)c2=O)c1,–,350,1.85,3.8,1040,–
Cc1cnc(NCCc2ccccc2)c(=O)n1CC(=O)NCc1ccc2nc(N)sc2c1,> 3970,–,–,7.5,–,–
COc1ccc(CCNc2ncc(C)n(CC(=O)NCc3ccc4[nH]cnc4c3)c2=O)cc1,5,190,1.52,5.8,458,–
Cc1cnc(NCCc2ccccc2)c(=O)n1CC(=O)NCc1ccc2[nH]cnc2c1,–,390,1.77,5.8,1630,–
Cc1cnc(NCCc2ccccn2)c(=O)n1CC(=O)NCc1ccc2[nH]ncc2c1,3.1,–,–,–,–,–
Cc1ccc(NS(=O)(=O)c2ccc3c(c2)CCO3)c(=O)n1CC(=O)NCc1ccc2c[nH]nc2c1,1320,–,–,–,–,–
Cc1cnc(NCCc2ccc3c(c2)CCO3)c(=O)n1CC(=O)NCc1ccc2[nH]ncc2c1,2.9,–,–,–,–,–
COc1ccc(C2(CNc3ncc(C)n(CC(=O)NCc4ccc5[nH]nc(N)c5c4)c3=O)CC2)cc1,9,1370,1.48,3.6,3270,–
Cc1cnc(NC[C@H](C)c2ccccc2)c(=O)n1CC(=O)NCc1ccc2[nH]ncc2c1,5.7,–,–,–,–,–
Cc1cnc(NCCc2ccccc2)c(=O)n1CC(=O)NCc1ccc2[nH]nnc2c1,224,–,–,–,–,–
COc1cccc(CCNc2ncc(C)n(CC(=O)NCc3ccc4[nH]ncc4c3)c2=O)c1,10.4,–,–,–,–,–
Cc1cnc(NCC2(c3ccc(F)cc3)CC2)c(=O)n1CC(=O)NCc1ccc2c(N)noc2c1,15.5,850,2.17,8.6,3150,–
Cc1cnc(NCCc2ccc3c(c2)CCC3)c(=O)n1CC(=O)NCc1ccc2[nH]ccc2c1,29.8,–,–,–,–,–
Cc1cnc(NCCc2ccc(F)cc2)c(=O)n1CC(=O)NCc1ccc2c(N)noc2c1,17.6,640,4.35,8.6,4680,–
Cc1cnc(NCCc2ccc3c(c2)CCC3)c(=O)n1CC(=O)NCc1ccc2c(ccn2N)c1,12400,–,–,7.4,–,–
Cc1cnc(NCC2(c3ccccc3)CCC2)c(=O)n1CC(=O)NCc1ccc2c(N)noc2c1,10.2,620,1.95,8.6,2150,–
Cc1nc(N)ccc1CNC(=O)Cn1c(C)cnc(NCCc2ccccc2)c1=O [L-375378],1,900,3.32,–,–,4580

# Other lines, results leading:
Ki [1] [nM],Cmax [2] [ng/mL],half-life [3] [h],pKa [4],AUC ([5]; plasma) [ng·h/mL],AUC ([5]; in vivo) [ng·h/mL],Compound
8.7,410,0.6,–,515,–,Cc1ccc(NS(=O)(=O)Cc2ccccc2)c(=O)n1CC(=O)NCc1ccc2[nH]ncc2c1
444,–,–,–,–,–,Cc1n[nH]c2ccc(CNC(=O)Cn3c(C)cnc(NCCc4ccccc4)c3=O)cc12
18.4,–,–,–,–,–,Cc1cnc(NCCc2ccccc2)c(=O)n1CC(=O)NCc1ccc2[nH]ncc2c1
33,30,–,6.3,18.3,–,Cc1cnc(NCCc2ccccc2)c(=O)n1CC(=O)NCc1ccc2[nH]nc(O)c2c1
22.2,1520,1.82,8.6,5470,–,Cc1ccc(NS(=O)(=O)Cc2ccc(Br)cc2)c(=O)n1CC(=O)NCc1ccc2c(N)noc2c1
28.7,230,1.2,3.6,298,–,Cc1ccc(NS(=O)(=O)c2ccc3c(c2)CCO3)c(=O)n1CC(=O)NCc1ccc2[nH]nc(N)c2c1
224,580,1.4,3.8,1310,–,Cc1ccc(NS(=O)(=O)Cc2ccccc2)c(=O)n1CC(=O)NCc1ccc2c(N)[nH]nc2c1
–,240,2.2,8.2,630,–,Cc1ccc(NS(=O)(=O)Cc2ccccc2)c(=O)n1CC(=O)NCc1ccc2onc(N)c2c1
203,280,0.6,4.7,237,–,Cc1ccc(NS(=O)(=O)Cc2ccccc2)c(=O)n1CC(=O)NCc1ccc2c(N)noc2n1
–,1030,2.77,3.6,4850,–,Cc1cnc(NCCc2ccccc2)c(=O)n1CC(=O)NCc1ccc2[nH]nc(N)c2c1
1590,–,–,6.7,–,–,Cc1ccc(NS(=O)(=O)Cc2ccccc2)c(=O)n1CC(=O)NCc1ccc2c(N)[nH]nc2n1
6.5,170,1.15,5.8,202,–,Cc1ccc(NS(=O)(=O)Cc2ccc(Cl)cc2)c(=O)n1CC(=O)NCc1ccc2[nH]cnc2c1
271,–,–,4,–,–,Cc1cc2cn[nH]c2cc1CNC(=O)Cn1c(C)ccc(NS(=O)(=O)Cc2ccccc2)c1=O
10,–,–,6.3,–,–,Cc1cnc(NCC2(c3ccccc3)CCC2)c(=O)n1CC(=O)NCc1ccc2[nH]nc(O)c2c1
4.1,960,3.63,3.6,5930,–,Cc1cnc(NCC(F)(F)c2ccccc2)c(=O)n1CC(=O)NCc1ccc2[nH]nc(N)c2c1
15.4,880,2.07,3.6,2950,–,Cc1cnc(NCC2(c3ccc(F)cc3)CC2)c(=O)n1CC(=O)NCc1ccc2[nH]nc(N)c2c1
82.2,1030,2.52,8.6,3950,–,Cc1cnc(NCCc2ccccc2)c(=O)n1CC(=O)NCc1ccc2c(N)noc2c1
325,930,4.57,3.6,3950,–,COc1cccc(S(=O)(=O)Nc2cccn(CC(=O)NCc3ccc4[nH]nc(N)c4c3)c2=O)c1
72.9,–,–,3.6,–,–,Cc1ccc(NS(=O)(=O)Cc2ccccc2)c(=O)n1CC(=O)NCc1ccc2[nH]nc(N)c2c1
3.9,–,–,–,–,–,Cc1ccc(NS(=O)(=O)c2ccc3c(c2)CCO3)c(=O)n1CC(=O)NCc1ccc2[nH]ncc2c1
74.3,1600,1.55,8.6,3680,–,Cc1ccc(NS(=O)(=O)Cc2ccccc2)c(=O)n1CC(=O)NCc1ccc2c(N)noc2c1
–,960,0.417,–,2200,–,Cc1cnc(NCCc2ccccc2)c(=O)n1CC(=O)NCc1ccc2cn[nH]c2c1
0.7,790,1.78,–,–,2670,Cc1nc(N)ccc1CNC(=O)Cn1c(C)ccc(NS(=O)(=O)Cc2ccccc2)c1=O [L-374087]
